Patent US20200187502A1, “MICROBIOCIDAL OXADIAZOLE DERIVATIVES” (SYNGENTA PARTICIPATIONS AG, priority 2017, published 2020)

Tests used:
[1] = tested on: Glomerella lacenarium (Colletotrichum lacenarium); experiment: Fungicidal activity, liquid culture, cucumber preventative (anthracnose); assay type: cell-based; details: 20 ppm in the applied formulation, liquid culture in PDB, inhibition of growth measured photometrically 3 to 4 days after application, compared to untreated control, read-out: disease control
Outline: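 PDB broth seeded with cryo-stored conidia, added onto compound (DMSO solution) in 96-well plates; 24° C.; photometric growth read at 3–4 d post-application; % inhibition vs untreated check.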

[2] = tested on: Puccinia recondita f. Sp. Tritici; experiment: Fungicidal activity, wheat leaf disc curative (brown rust); assay type: in vivo; details: foliar, 200 ppm in the applied formulation, wheat leaf segments cv. Kanzler, curative (applied 1 day after inoculation), compared to untreated control, 6 to 8 days after application, read-out: disease control
Outline: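 Curative leaf-segment test, cv. Kanzler: spore inoculation, dark storage 19° C/75% RH, compound spray 1 day post-inoculation. Then 12 h light/12 h dark, 19° C, 75% RH. Read-out: % disease control vs untreated check, 6–8 d after application.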

[3] = tested on: Puccinia recondita f. Sp. Tritici; experiment: Fungicidal activity, wheat leaf disc preventative (brown rust); assay type: in vivo; details: foliar, 200 ppm in the applied formulation, wheat leaf segments cv. Kanzler, compared to untreated control, 7 to 9 days after application, read-out: disease control
Outline: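 Preventative leaf-segment test: spray application of diluted formulated compound on wheat cv. Kanzler, spore inoculation after 1 day. Percent control relative to untreated segments rated 7 to 9 days post-application, with incubation at 19° C, 75% relative humidity, 12 h photoperiod.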

CC(C)N(Cc1ccc(-c2noc(C(F)(F)F)n2)s1)C(=O)C1CCOC1 (stereo not drawn) [Compound 5.28, N-isopropyl-N-[[5-[5-(trifluoromethyl)-1,2,4-oxadiazol-3-yl]-2-thienyl]methyl]tetrahydrofuran-3-carboxamide]
≥ 80%: inhibition of growth at 20 ppm [1] | pest or weed control at 200 ppm [2] | pest or weed control at 200 ppm [3]

CC(C)N(Cc1ccc(-c2noc(C(F)(F)F)n2)s1)C(=O)C1(C)COC1 [Compound 5.32, N-isopropyl-3-methyl-N-[[5-[5-(trifluoromethyl)-1,2,4-oxadiazol-3-yl]-2-thienyl]methyl]oxetane-3-carboxamide]
≥ 80%: inhibition of growth at 20 ppm [1] | pest or weed control at 200 ppm [2] | pest or weed control at 200 ppm [3]

O=C(C1CCOC1)N(Cc1ccc(-c2noc(C(F)(F)F)n2)s1)C1CC1 (stereo not drawn) [Compound 5.37, N-cyclopropyl-N-[[5-[5-(trifluoromethyl)-1,2,4-oxadiazol-3-yl]-2-thienyl]methyl]tetrahydrofuran-3-carboxamide]
≥ 80%: inhibition of growth at 20 ppm [1] | pest or weed control at 200 ppm [2] | pest or weed control at 200 ppm [3]

CC1(C(=O)N(Cc2ccc(-c3noc(C(F)(F)F)n3)s2)C2CC2)CC1 [Compound 5.39, N-cyclopropyl-1-methyl-N-[[5-[5-(trifluoromethyl)-1,2,4-oxadiazol-3-yl]-2-thienyl]methyl]cyclopropanecarboxamide]
≥ 80%: inhibition of growth at 20 ppm [1] | pest or weed control at 200 ppm [2] | pest or weed control at 200 ppm [3]

O=C(C1CCCO1)N(Cc1ccc(-c2noc(C(F)(F)F)n2)s1)C1CC1 (stereo not drawn) [Compound 5.40, N-cyclopropyl-N-[[5-[5-(trifluoromethyl)-1,2,4-oxadiazol-3-yl]-2-thienyl]methyl]tetrahydrofuran-2-carboxamide]
≥ 80%: inhibition of growth at 20 ppm [1] | pest or weed control at 200 ppm [2] | pest or weed control at 200 ppm [3]

CC1(C(=O)N(Cc2ccc(-c3noc(C(F)(F)F)n3)s2)C2CC2)COC1 [Compound 5.41, N-cyclopropyl-3-methyl-N-[[5-[5-(trifluoromethyl)-1,2,4-oxadiazol-3-yl]-2-thienyl]methyl]oxetane-3-carboxamide]
≥ 80%: inhibition of growth at 20 ppm [1] | pest or weed control at 200 ppm [2] | pest or weed control at 200 ppm [3]

O=C(C1CC1(F)F)N(Cc1ccc(-c2noc(C(F)(F)F)n2)s1)C1CC1 (stereo not drawn) [Compound 5.42, N-cyclopropyl-2,2-difluoro-N-[[5-[5-(trifluoromethyl)-1,2,4-oxadiazol-3-yl]-2-thienyl]methyl]cyclopropanecarboxamide]
≥ 80%: inhibition of growth at 20 ppm [1] | pest or weed control at 200 ppm [2] | pest or weed control at 200 ppm [3]

CC1CC1C(=O)N(Cc1ccc(-c2noc(C(F)(F)F)n2)s1)C1CC1 (stereo not drawn) [Compound 5.43, N-cyclopropyl-2-methyl-N-[[5-[5-(trifluoromethyl)-1,2,4-oxadiazol-3-yl]-2-thienyl]methyl]cyclopropanecarboxamide]
≥ 80%: inhibition of growth at 20 ppm [1] | pest or weed control at 200 ppm [2] | pest or weed control at 200 ppm [3]

CC1CC1C(=O)N(Cc1ccc(-c2noc(C(F)(F)F)n2)s1)OCC(F)F (stereo not drawn) [Compound 5.50, N-(2,2-difluoroethoxy)-2-methyl-N-[[5-[5-(trifluoromethyl)-1,2,4-oxadiazol-3-yl]-2-thienyl]methyl]cyclopropanecarboxamide]
≥ 80%: inhibition of growth at 20 ppm [1] | pest or weed control at 200 ppm [2] | pest or weed control at 200 ppm [3]

CCN(Cc1ccc(-c2noc(C(F)(F)F)n2)s1)C(=O)N(CC(F)F)C1CC1 [Compound 5.51, 1-cyclopropyl-1-(2,2-difluoroethyl)-3-ethyl-3-[[5-[5-(trifluoromethyl)-1,2,4-oxadiazol-3-yl]-2-thienyl]methyl]urea]
≥ 80%: inhibition of growth at 20 ppm [1] | pest or weed control at 200 ppm [2] | pest or weed control at 200 ppm [3]

CCN(Cc1ccc(-c2noc(C(F)(F)F)n2)s1)C(=O)N1CCCO1 [Compound 5.52, N-ethyl-N-[[5-[5-(trifluoromethyl)-1,2,4-oxadiazol-3-yl]-2-thienyl]methyl]isoxazolidine-2-carboxamide]
≥ 80%: inhibition of growth at 20 ppm [1] | pest or weed control at 200 ppm [2] | pest or weed control at 200 ppm [3]

CCCN(CC1CC1)C(=O)N(CC)Cc1ccc(-c2noc(C(F)(F)F)n2)s1 [Compound 5.53, 1-(cyclopropylmethyl)-3-ethyl-1-propyl-3-[[5-[5-(trifluoromethyl)-1,2,4-oxadiazol-3-yl]-2-thienyl]methyl]urea]
≥ 80%: inhibition of growth at 20 ppm [1] | pest or weed control at 200 ppm [2] | pest or weed control at 200 ppm [3]

CN(Cc1ccc(-c2noc(C(F)(F)F)n2)s1)C(=O)N(CC(F)F)C1CC1 [Compound 5.54, 1-cyclopropyl-1-(2,2-difluoroethyl)-3-methyl-3-[[5-[5-(trifluoromethyl)-1,2,4-oxadiazol-3-yl]-2-thienyl]methyl]urea]
≥ 80%: inhibition of growth at 20 ppm [1] | pest or weed control at 200 ppm [2] | pest or weed control at 200 ppm [3]

CN(Cc1ccc(-c2noc(C(F)(F)F)n2)s1)C(=O)N1CCC2(CC2)C1 [Compound 5.55, N-methyl-N-[[5-[5-(trifluoromethyl)-1,2,4-oxadiazol-3-yl]-2-thienyl]methyl]-5-azaspiro[2.4]heptane-5-carboxamide]
≥ 80%: inhibition of growth at 20 ppm [1] | pest or weed control at 200 ppm [2] | pest or weed control at 200 ppm [3]

CCCN(CC1CC1)C(=O)N(C)Cc1ccc(-c2noc(C(F)(F)F)n2)s1 [Compound 5.57, 1-(cyclopropylmethyl)-3-methyl-1-propyl-3-[[5-(5-(trifluoromethyl)-1,2,4-oxadiazol-3-yl]-2-thienyl]methyl]urea]
≥ 80%: inhibition of growth at 20 ppm [1] | pest or weed control at 200 ppm [2] | pest or weed control at 200 ppm [3]

CC(C)N(Cc1ccc(-c2noc(C(F)(F)F)n2)s1)C(=O)NC1CC1 [Compound 5.59, 3-cyclopropyl-1-isopropyl-1-[[5-[5-(trifluoromethyl)-1,2,4-oxadiazol-3-yl]-2-thienyl]methyl]urea]
≥ 80%: inhibition of growth at 20 ppm [1] | pest or weed control at 200 ppm [2] | pest or weed control at 200 ppm [3]

O=C(N1CCCO1)N(Cc1ccc(-c2noc(C(F)(F)F)n2)s1)C1CC1 [Compound 5.61, N-cyclopropyl-N-[[5-[5-(trifluoromethyl)-1,2,4-oxadiazol-3-yl]-2-thienyl]methyl]isoxazolidine-2-carboxamide]
≥ 80%: inhibition of growth at 20 ppm [1] | pest or weed control at 200 ppm [2] | pest or weed control at 200 ppm [3]

O=C(N1CCCO1)N(Cc1ccc(-c2noc(C(F)(F)F)n2)s1)OCC(F)F [Compound 5.64, N-(2,2-difluoroethoxy)-N-[[5-[5-(trifluoromethyl)-1,2,4-oxadiazol-3-yl]-2-thienyl]methyl]isoxazolidine-2-carboxamide]
≥ 80%: inhibition of growth at 20 ppm [1] | pest or weed control at 200 ppm [2] | pest or weed control at 200 ppm [3]

CCN(Cc1ccc(-c2noc(C(F)(F)F)n2)s1)C(=O)C(C)=O [Compound 6.6, N-ethyl-2-oxo-N-[[5-[5-(trifluoromethyl)-1,2,4-oxadiazol-3-yl]-2-thienyl]methyl]propanamide]
≥ 80%: inhibition of growth at 20 ppm [1] | pest or weed control at 200 ppm [2] | pest or weed control at 200 ppm [3]

CC(=O)C(=O)N(C)Cc1ccc(-c2noc(C(F)(F)F)n2)s1 [Compound 6.8, N-methyl-2-oxo-N-[[5-[5-(trifluoromethyl)-1,2,4-oxadiazol-3-yl]-2-thienyl]methyl]propanamide]
≥ 80%: inhibition of growth at 20 ppm [1] | pest or weed control at 200 ppm [2] | pest or weed control at 200 ppm [3]

CC(C)N(Cc1ccc(-c2noc(C(F)(F)F)n2)s1)C(=O)C(N)=O [Compound 6.9, N′-isopropyl-N′-[[5-[5-(trifluoromethyl)-1,2,4-oxadiazol-3-yl]-2-thienyl]methyl]oxamide]
≥ 80%: inhibition of growth at 20 ppm [1] | pest or weed control at 200 ppm [2] | pest or weed control at 200 ppm [3]

CC(=O)C(=O)N(Cc1ccc(-c2noc(C(F)(F)F)n2)s1)C1CC1 [Compound 6.11, N-cyclopropyl-2-oxo-N-[[5-[5-(trifluoromethyl)-1,2,4-oxadiazol-3-yl]-2-thienyl]methyl]propanamide]
≥ 80%: inhibition of growth at 20 ppm [1] | pest or weed control at 200 ppm [2] | pest or weed control at 200 ppm [3]

CN(Cc1ccc(-c2noc(C(F)(F)F)n2)s1)S(C)(=O)=O [Compound 6.27, N-methyl-N-[[5-[5-(trifluoromethyl)-1,2,4-oxadiazol-3-yl]-2-thienyl]methyl]methanesulfonamide]
≥ 80%: inhibition of growth at 20 ppm [1] | pest or weed control at 200 ppm [2] | pest or weed control at 200 ppm [3]

CCN(Cc1ccc(-c2noc(C(F)(F)F)n2)s1)C(=O)C(=O)c1ccccc1 [Compound 6.40, N-ethyl-2-oxo-2-phenyl-N-[[5-[5-(trifluoromethyl)-1,2,4-oxadiazol-3-yl]-2-thienyl]methyl]acetamide]
≥ 80%: inhibition of growth at 20 ppm [1] | pest or weed control at 200 ppm [2] | pest or weed control at 200 ppm [3]

CCC(=O)C(=O)N(CC)Cc1ccc(-c2noc(C(F)(F)F)n2)s1 [Compound 6.42, N-ethyl-2-oxo-N-[[5-[5-(trifluoromethyl)-1,2,4-oxadiazol-3-yl]-2-thienyl]methyl]butanamide]
≥ 80%: inhibition of growth at 20 ppm [1] | pest or weed control at 200 ppm [2] | pest or weed control at 200 ppm [3]
